# Patent publication US20020137929A1, “1 - (3-heterocyclylphenyl) isothiourea, -isourea, -guanidine and -amidine herbicidal agents” (Intellectual Property Department, BASF Aktiengesellschaft, priority 1998, published 2002)
# Columns and labels:
# [1] = tested on: IPOHE (Morningglory, Ivyleaf); experiment: Preemergence herbicidal evaluation; assay type: in vivo, Ipomoea hederacea; conditions: rated 4-5 weeks after treatment, rating scale 0-9
# Summary of the method: (§1)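 Rating at 4–5 wk post-spray on a 0–9 visual scale vs control. Application: aqueous acetone, ~0.0156–0.500 kg/ha, to soil surface after seeding, preemergence.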
# [2] = tested on: GLXMAW (Soybean, Williams); experiment: Postemergence herbicidal evaluation; assay type: in vivo, Glycine max, (L.) Merr. cv Williams; conditions: postemergence
# Summary of the method: (§2)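 Compound is applied as a foliar spray to seedlings about two weeks old, formulated in equal parts acetone and water with 0.5% TWEEN 20 and delivered at 40 psi to give about 0.0156–0.500 kg per hectare. Injury is rated visually 0–9 after four to five weeks.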
# ABUTH (Velvetleaf) [3] = experiment: Preemergence herbicidal evaluation; assay type: in vivo, Abutilon theophrasti; conditions: rated 4-5 weeks after treatment, rating scale 0-9
# Summary of the method: as §1
# CYPSE (Flatsedge) = experiment: Preemergence weed control under flooded paddy conditions; assay type: in vivo, Cyperus serotinus; conditions: rated 3-4 weeks after treatment
# Summary of the method: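 Flooded-pot preemergence screen with silt loam and seeds in the upper 0.5 cm. Dose about 0.0313 to 0.500 kg/ha, delivered into flood water; visual 0-9 score after 3 to 4 weeks.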
# [4] = tested on: IPOHE (Morningglory, Ivyleaf); experiment: Postemergence herbicidal evaluation; assay type: in vivo, Ipomoea hederacea; conditions: postemergence
# Summary of the method: as §2
# [5] = tested on: ECHORC (Watergrass (Calif.)); experiment: Preemergence weed control under flooded paddy conditions; assay type: in vivo, Echinochloa oryzoides; conditions: rated 3-4 weeks after treatment
# Summary of the method: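 Seeds or propagules sown in silt loam kept flooded 1.5-3 cm; compounds in 50/50 acetone/water pipetted into flood water at about 0.0313 to 0.500 kg/ha. Greenhouse; visual 0-9 rating versus untreated control 3-4 weeks after treatment.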
# CASOB (Sicklepod) = experiment: Preemergence herbicidal evaluation; assay type: in vivo, Cassia obtusifolia; conditions: rated 4-5 weeks after treatment, rating scale 0-9
# Summary of the method: as §1
# SETVI (Foxtail, Green) = experiment: Postemergence herbicidal evaluation; assay type: in vivo, Setaria viridis; conditions: postemergence
# Summary of the method: as §2
# ABUTH (Velvetleaf) [6] = experiment: Postemergence herbicidal evaluation; assay type: in vivo, Abutilon theophrasti; conditions: postemergence
# Summary of the method: as §2
# ECHCG (Barnyardgrass) = experiment: Preemergence herbicidal evaluation; assay type: in vivo, Echinochloa crus-galli; conditions: rated 4-5 weeks after treatment, rating scale 0-9
# Summary of the method: as §1
# AMBEL (Ragweed, Common) = experiment: Preemergence herbicidal evaluation; assay type: in vivo, Ambrosia artemisifolia; conditions: rated 4-5 weeks after treatment, rating scale 0-9
# Summary of the method: as §1
# ZEAMX (Corn, Field) = experiment: Postemergence herbicidal evaluation; assay type: in vivo, Zea mays; conditions: postemergence
# Summary of the method: as §2
smiles,measurement,setting,value
"Cn1c(C(F)(F)F)cc(=O)n(-c2cc(N=C3SCC(=O)N3Cc3cccc(C(F)(F)F)c3)c(Cl)cc2F)c1=O [Compound 142, 3-{4-Chloro-2-fluoro-5-{{3-[m-(trifluoromethyl)benzyl]-4-oxo-2-thiazolidinylidene}-amino}phenyl}-1-methyl-6-(trifluoromethyl)-2,4(1H,3H)-pyrimidinedione]",Preemergence herbicidal rating IPOHE,[1]; rate 0.0156 kg/ha,0.0
same,Preemergence herbicidal rating IPOHE,[1]; rate 0.0313 kg/ha,0.0
same,Preemergence herbicidal rating IPOHE,[1]; rate 0.0625 kg/ha,0.0
same,Preemergence herbicidal rating IPOHE,[1]; rate 0.1250 kg/ha,1.0
same,Preemergence herbicidal rating IPOHE,[1]; rate 0.2500 kg/ha,2.0
same,herbicidal rating GLXMAW,[2]; rate 0.0156 kg/ha,5.0
same,herbicidal rating GLXMAW,[2]; rate 0.0313 kg/ha,5.0
same,herbicidal rating GLXMAW,[2]; rate 0.0625 kg/ha,5.5
same,Preemergence herbicidal rating ABUTH,ABUTH (Velvetleaf) [3]; rate 0.0156 kg/ha,0.0
same,Preemergence herbicidal rating ABUTH,ABUTH (Velvetleaf) [3]; rate 0.0313 kg/ha,1.0
same,Preemergence herbicidal rating ABUTH,ABUTH (Velvetleaf) [3]; rate 0.0625 kg/ha,1.0
same,Preemergence herbicidal rating ABUTH,ABUTH (Velvetleaf) [3]; rate 0.1250 kg/ha,4.0
same,Preemergence herbicidal rating ABUTH,ABUTH (Velvetleaf) [3]; rate 0.2500 kg/ha,9.0
same,"herbicidal effect rating, CYPSE",CYPSE (Flatsedge); 0.1250 kg/ha,0.0
same,"herbicidal effect rating, CYPSE",CYPSE (Flatsedge); 0.2500 kg/ha,0.0
same,herbicidal rating IPOHE,[4]; rate 0.0156 kg/ha,7.0
same,herbicidal rating IPOHE,[4]; rate 0.0313 kg/ha,7.0
same,herbicidal rating IPOHE,[4]; rate 0.0625 kg/ha,9.0
same,"herbicidal effect rating, ECHORC",[5]; 0.0313 kg/ha,4.0
same,"herbicidal effect rating, ECHORC",[5]; 0.0625 kg/ha,5.0
same,"herbicidal effect rating, ECHORC",[5]; 0.1250 kg/ha,7.0
same,"herbicidal effect rating, ECHORC",[5]; 0.2500 kg/ha,7.0
same,Preemergence herbicidal rating CASOB,CASOB (Sicklepod); rate 0.0156 kg/ha,1.0
same,Preemergence herbicidal rating CASOB,CASOB (Sicklepod); rate 0.0313 kg/ha,0.0
same,Preemergence herbicidal rating CASOB,CASOB (Sicklepod); rate 0.0625 kg/ha,2.0
same,Preemergence herbicidal rating CASOB,CASOB (Sicklepod); rate 0.1250 kg/ha,1.0
same,Preemergence herbicidal rating CASOB,CASOB (Sicklepod); rate 0.2500 kg/ha,0.0
same,herbicidal rating SETVI,"SETVI (Foxtail, Green); rate 0.0156 kg/ha",2.0
same,herbicidal rating SETVI,"SETVI (Foxtail, Green); rate 0.0313 kg/ha",1.0
same,herbicidal rating SETVI,"SETVI (Foxtail, Green); rate 0.0625 kg/ha",3.0
same,herbicidal rating ABUTH,ABUTH (Velvetleaf) [6]; rate 0.0156 kg/ha,3.0
same,herbicidal rating ABUTH,ABUTH (Velvetleaf) [6]; rate 0.0313 kg/ha,9.0
same,herbicidal rating ABUTH,ABUTH (Velvetleaf) [6]; rate 0.0625 kg/ha,9.0
same,Preemergence herbicidal rating ECHCG,ECHCG (Barnyardgrass); rate 0.0156 kg/ha,0.0
same,Preemergence herbicidal rating ECHCG,ECHCG (Barnyardgrass); rate 0.0313 kg/ha,0.0
same,Preemergence herbicidal rating ECHCG,ECHCG (Barnyardgrass); rate 0.0625 kg/ha,0.0
same,Preemergence herbicidal rating ECHCG,ECHCG (Barnyardgrass); rate 0.1250 kg/ha,0.0
same,Preemergence herbicidal rating ECHCG,ECHCG (Barnyardgrass); rate 0.2500 kg/ha,0.0
same,Preemergence herbicidal rating AMBEL,"AMBEL (Ragweed, Common); rate 0.0156 kg/ha",0.0
same,Preemergence herbicidal rating AMBEL,"AMBEL (Ragweed, Common); rate 0.0313 kg/ha",0.0
same,Preemergence herbicidal rating AMBEL,"AMBEL (Ragweed, Common); rate 0.0625 kg/ha",4.0
same,Preemergence herbicidal rating AMBEL,"AMBEL (Ragweed, Common); rate 0.1250 kg/ha",2.0
same,Preemergence herbicidal rating AMBEL,"AMBEL (Ragweed, Common); rate 0.2500 kg/ha",1.0
same,herbicidal rating ZEAMX,"ZEAMX (Corn, Field); rate 0.0156 kg/ha",4.0
same,herbicidal rating ZEAMX,"ZEAMX (Corn, Field); rate 0.0313 kg/ha",4.0
same,herbicidal rating ZEAMX,"ZEAMX (Corn, Field); rate 0.0625 kg/ha",4.5
"Cn1c(C(F)(F)F)cc(=O)n(-c2cc(N=C3SCC(=O)N3C3CC3)c(Cl)cc2F)c1=O [Compound 152, 3-{4-Chloro-5-[(3-cyclopropyl-4-oxo-2-thiazolidinylidene)amino]-2-fluorophenyl}-1-methyl-6-(trifluoromethyl)-2,4(1H,3H)-pyrimidinedione]",Preemergence herbicidal rating IPOHE,[1]; rate 0.0313 kg/ha,0.0
same,Preemergence herbicidal rating IPOHE,[1]; rate 0.0625 kg/ha,1.0
same,Preemergence herbicidal rating IPOHE,[1]; rate 0.1250 kg/ha,4.0
same,Preemergence herbicidal rating IPOHE,[1]; rate 0.2500 kg/ha,7.0
same,herbicidal rating GLXMAW,[2]; rate 0.0156 kg/ha,4.0
same,herbicidal rating GLXMAW,[2]; rate 0.0313 kg/ha,4.5
same,herbicidal rating GLXMAW,[2]; rate 0.0625 kg/ha,6.0
same,Preemergence herbicidal rating ABUTH,ABUTH (Velvetleaf) [3]; rate 0.0313 kg/ha,0.0
same,Preemergence herbicidal rating ABUTH,ABUTH (Velvetleaf) [3]; rate 0.0625 kg/ha,0.0
same,Preemergence herbicidal rating ABUTH,ABUTH (Velvetleaf) [3]; rate 0.1250 kg/ha,9.0
same,Preemergence herbicidal rating ABUTH,ABUTH (Velvetleaf) [3]; rate 0.2500 kg/ha,9.0
same,"herbicidal effect rating, CYPSE",CYPSE (Flatsedge); 0.0625 kg/ha,0.0
same,"herbicidal effect rating, CYPSE",CYPSE (Flatsedge); 0.1250 kg/ha,0.0
same,"herbicidal effect rating, CYPSE",CYPSE (Flatsedge); 0.2500 kg/ha,0.0
same,herbicidal rating IPOHE,[4]; rate 0.0156 kg/ha,7.0
same,herbicidal rating IPOHE,[4]; rate 0.0313 kg/ha,9.0
same,herbicidal rating IPOHE,[4]; rate 0.0625 kg/ha,9.0
same,"herbicidal effect rating, ECHORC",[5]; 0.0625 kg/ha,0.0
same,"herbicidal effect rating, ECHORC",[5]; 0.1250 kg/ha,0.0
same,"herbicidal effect rating, ECHORC",[5]; 0.2500 kg/ha,0.0
same,Preemergence herbicidal rating CASOB,CASOB (Sicklepod); rate 0.0313 kg/ha,0.0
same,Preemergence herbicidal rating CASOB,CASOB (Sicklepod); rate 0.0625 kg/ha,1.0
same,Preemergence herbicidal rating CASOB,CASOB (Sicklepod); rate 0.1250 kg/ha,0.0
same,Preemergence herbicidal rating CASOB,CASOB (Sicklepod); rate 0.2500 kg/ha,3.0
same,herbicidal rating SETVI,"SETVI (Foxtail, Green); rate 0.0156 kg/ha",0.0
same,herbicidal rating SETVI,"SETVI (Foxtail, Green); rate 0.0313 kg/ha",3.0
same,herbicidal rating SETVI,"SETVI (Foxtail, Green); rate 0.0625 kg/ha",3.0
same,herbicidal rating ABUTH,ABUTH (Velvetleaf) [6]; rate 0.0156 kg/ha,6.0
same,herbicidal rating ABUTH,ABUTH (Velvetleaf) [6]; rate 0.0313 kg/ha,4.0
same,herbicidal rating ABUTH,ABUTH (Velvetleaf) [6]; rate 0.0625 kg/ha,9.0
same,Preemergence herbicidal rating ECHCG,ECHCG (Barnyardgrass); rate 0.0313 kg/ha,0.0
same,Preemergence herbicidal rating ECHCG,ECHCG (Barnyardgrass); rate 0.0625 kg/ha,0.0
same,Preemergence herbicidal rating ECHCG,ECHCG (Barnyardgrass); rate 0.1250 kg/ha,1.0
same,Preemergence herbicidal rating ECHCG,ECHCG (Barnyardgrass); rate 0.2500 kg/ha,1.0
same,Preemergence herbicidal rating AMBEL,"AMBEL (Ragweed, Common); rate 0.0313 kg/ha",0.0
same,Preemergence herbicidal rating AMBEL,"AMBEL (Ragweed, Common); rate 0.0625 kg/ha",0.0
same,Preemergence herbicidal rating AMBEL,"AMBEL (Ragweed, Common); rate 0.1250 kg/ha",2.0
same,Preemergence herbicidal rating AMBEL,"AMBEL (Ragweed, Common); rate 0.2500 kg/ha",6.0
same,herbicidal rating ZEAMX,"ZEAMX (Corn, Field); rate 0.0156 kg/ha",4.0
same,herbicidal rating ZEAMX,"ZEAMX (Corn, Field); rate 0.0313 kg/ha",5.0
same,herbicidal rating ZEAMX,"ZEAMX (Corn, Field); rate 0.0625 kg/ha",6.5
